Results from ChEMBL document CHEMBL5137088 (J Med Chem, 2022).

What was measured:
in vitro [1] = details: chicken, chick embryo fibroblast cells
in vitro [2] = details: dog, MDCK cells
in vitro [3] = details: human, Caco-2
in vitro [4] = details: human, human liver (fraction not stated)
in vitro [5] = details: human, human liver (fraction not stated); remark: listed apart in the source
in vitro [6] = details: human, liver microsomes
Cytochrome P450 2C9 = Cytochrome P450 2C9 (Homo sapiens, UniProt P11712); type: ADME, microsomes, Liver, Microsome
Cytochrome P450 2C19 = Cytochrome P450 2C19 (Homo sapiens, UniProt P33261); type: ADME, microsomes, Liver, Microsome
Cytochrome P450 3A4 = Cytochrome P450 3A4 (Homo sapiens, UniProt P08684); type: ADME, microsomes, Liver, Microsome
Cytochrome P450 1A2 = target: T1, Cytochrome P450 1A2 (Homo sapiens, UniProt P05177)
T1 sequence (P05177 whole entry): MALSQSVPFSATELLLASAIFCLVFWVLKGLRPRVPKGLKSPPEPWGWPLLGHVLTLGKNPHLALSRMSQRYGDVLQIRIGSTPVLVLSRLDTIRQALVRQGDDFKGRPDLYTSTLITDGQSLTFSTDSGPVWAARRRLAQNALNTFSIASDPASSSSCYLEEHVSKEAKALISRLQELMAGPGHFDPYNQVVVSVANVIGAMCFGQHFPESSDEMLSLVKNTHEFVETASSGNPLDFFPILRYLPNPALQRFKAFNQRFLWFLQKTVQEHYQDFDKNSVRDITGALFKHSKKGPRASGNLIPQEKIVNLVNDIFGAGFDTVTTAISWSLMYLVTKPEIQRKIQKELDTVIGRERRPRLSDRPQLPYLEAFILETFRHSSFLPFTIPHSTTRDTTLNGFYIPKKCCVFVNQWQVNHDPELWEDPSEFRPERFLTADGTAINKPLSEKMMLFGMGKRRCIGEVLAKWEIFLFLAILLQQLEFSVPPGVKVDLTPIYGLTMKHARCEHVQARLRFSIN

Cytochrome P450 2D6 = Cytochrome P450 2D6 (Homo sapiens, UniProt P10635)
[7] = Half-life in Sprague-Dawley rat at 2 mg/kg, iv measured upto 12 hrs by LC-MS/MS analysis; type: ADME, organism-based; details: in vivo
[8] = Tmax in Sprague-Dawley rat at 2 mg/kg, iv measured upto 12 hrs by LC-MS/MS analysis; type: ADME, organism-based; details: in vivo
[9] = Cmax in Sprague-Dawley rat at 2 mg/kg, iv measured upto 12 hrs by LC-MS/MS analysis; type: ADME, organism-based; set-up: time < 12 hrs, dose 2 mg/kg, route iv; details: in vivo
[10] = Volume of distribution at steady state in Sprague-Dawley rat at 2 mg/kg, iv measured upto 12 hrs by LC-MS/MS analysis; type: ADME, organism-based; details: in vivo, read-out: Vdss
[11] = Clearance in Sprague-Dawley rat at 2 mg/kg, iv measured upto 12 hrs by LC-MS/MS analysis; type: ADME, organism-based; details: in vivo
[12] = Half-life in Sprague-Dawley rat at 20 mg/kg, po measured upto 12 hrs by LC-MS/MS analysis; type: ADME, organism-based; details: in vivo
[13] = Tmax in Sprague-Dawley rat at 20 mg/kg, po measured upto 12 hrs by LC-MS/MS analysis; type: ADME, organism-based; details: in vivo
[14] = Cmax in Sprague-Dawley rat at 20 mg/kg, po measured upto 12 hrs by LC-MS/MS analysis; type: ADME, organism-based; set-up: time < 12 hrs, dose 20 mg/kg, route po; details: in vivo
[15] = Oral bioavailability in Sprague-Dawley rat at 20 mg/kg measured upto 12 hrs by LC-MS/MS analysis; type: ADME, organism-based; details: in vivo
[16] = Acute toxicity in 12 hrs fasted Kunming mouse assessed as animal death at 1000 mg/kg, po measured for 1 week; type: organism-based; details: in vivo, 168 h, time 1 weeks
[17] = Acute toxicity in 12 hrs fasted Kunming mouse assessed as lethargy at 1000 mg/kg, po measured for 1 week; type: organism-based; details: in vivo, 168 h, time 1 weeks
[18] = Acute toxicity in 12 hrs fasted Kunming mouse assessed as clonic convulsion at 1000 mg/kg, po measured for 1 week; type: organism-based; details: in vivo, 168 h, time 1 weeks
[19] = Acute toxicity in 12 hrs fasted Kunming mouse assessed as ruffled fur at 1000 mg/kg, po measured for 1 week; type: organism-based; details: in vivo, 168 h, time 1 weeks
[20] = Subacute toxicity in 12 hrs fasted Kunming mouse assessed as animal death at 50 mg/kg, po administered once every two days for 2 weeks; type: organism-based; details: in vivo
[21] = Subacute toxicity in 12 hrs fasted Kunming mouse assessed as poisoning symptom at 50 mg/kg, po administered once every two days for 2 weeks; type: organism-based; details: in vivo
[22] = Subacute toxicity in 12 hrs fasted Kunming mouse assessed as increase in body weight at 50 mg/kg, po administered once every two days for 2 weeks relative to control; type: organism-based; details: in vivo
[23] = Subacute toxicity in 12 hrs fasted Kunming mouse assessed as animal death at 50 mg/kg, iv administered once every two days for 2 weeks; type: organism-based; details: in vivo
[24] = Subacute toxicity in 12 hrs fasted Kunming mouse assessed as side effect at 50 mg/kg, iv administered once every two days for 2 weeks; type: organism-based; details: in vivo

Sequence of Cytochrome P450 2C19 (P33261 whole entry): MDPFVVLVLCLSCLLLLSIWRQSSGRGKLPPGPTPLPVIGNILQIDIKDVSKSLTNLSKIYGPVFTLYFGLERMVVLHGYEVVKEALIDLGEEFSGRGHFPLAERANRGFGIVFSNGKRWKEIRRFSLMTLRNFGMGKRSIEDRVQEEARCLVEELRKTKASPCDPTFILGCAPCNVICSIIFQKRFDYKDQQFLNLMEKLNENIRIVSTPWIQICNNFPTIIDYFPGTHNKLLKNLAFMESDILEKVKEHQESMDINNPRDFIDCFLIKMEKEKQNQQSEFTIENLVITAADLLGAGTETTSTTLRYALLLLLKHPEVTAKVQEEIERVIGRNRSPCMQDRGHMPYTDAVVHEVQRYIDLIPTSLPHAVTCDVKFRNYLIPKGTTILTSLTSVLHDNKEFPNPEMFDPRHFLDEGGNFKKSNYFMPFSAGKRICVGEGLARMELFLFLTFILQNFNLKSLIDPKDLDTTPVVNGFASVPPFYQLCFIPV
Sequence of Cytochrome P450 3A4 (P08684 whole entry): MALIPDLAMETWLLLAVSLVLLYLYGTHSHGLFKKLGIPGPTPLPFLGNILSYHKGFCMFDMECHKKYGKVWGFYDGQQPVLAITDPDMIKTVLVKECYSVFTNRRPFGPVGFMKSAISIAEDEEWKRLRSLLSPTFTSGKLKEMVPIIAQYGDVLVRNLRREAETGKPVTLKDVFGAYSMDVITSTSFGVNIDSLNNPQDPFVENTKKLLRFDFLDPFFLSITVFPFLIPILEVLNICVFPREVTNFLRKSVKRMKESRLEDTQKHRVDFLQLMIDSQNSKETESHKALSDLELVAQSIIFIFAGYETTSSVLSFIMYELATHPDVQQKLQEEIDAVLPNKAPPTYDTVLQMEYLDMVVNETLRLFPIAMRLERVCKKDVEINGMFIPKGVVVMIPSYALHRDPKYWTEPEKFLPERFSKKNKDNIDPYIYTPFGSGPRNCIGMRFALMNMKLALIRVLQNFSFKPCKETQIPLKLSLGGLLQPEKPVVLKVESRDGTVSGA
Sequence of Cytochrome P450 2C9 (P11712 whole entry): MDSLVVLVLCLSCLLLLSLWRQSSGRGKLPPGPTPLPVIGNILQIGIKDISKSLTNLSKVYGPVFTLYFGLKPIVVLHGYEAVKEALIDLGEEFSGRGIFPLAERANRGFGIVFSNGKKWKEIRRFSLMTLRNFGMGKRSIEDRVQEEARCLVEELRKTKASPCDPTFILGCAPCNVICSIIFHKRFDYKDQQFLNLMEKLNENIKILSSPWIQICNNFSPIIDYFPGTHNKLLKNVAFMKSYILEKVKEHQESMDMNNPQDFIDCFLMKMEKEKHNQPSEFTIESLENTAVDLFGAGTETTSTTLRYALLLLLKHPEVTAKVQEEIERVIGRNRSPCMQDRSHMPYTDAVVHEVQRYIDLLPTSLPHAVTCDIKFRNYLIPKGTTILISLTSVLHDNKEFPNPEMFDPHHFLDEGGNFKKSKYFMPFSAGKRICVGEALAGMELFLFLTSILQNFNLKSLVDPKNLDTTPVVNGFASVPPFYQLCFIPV
Sequence of Cytochrome P450 2D6 (P10635 whole entry): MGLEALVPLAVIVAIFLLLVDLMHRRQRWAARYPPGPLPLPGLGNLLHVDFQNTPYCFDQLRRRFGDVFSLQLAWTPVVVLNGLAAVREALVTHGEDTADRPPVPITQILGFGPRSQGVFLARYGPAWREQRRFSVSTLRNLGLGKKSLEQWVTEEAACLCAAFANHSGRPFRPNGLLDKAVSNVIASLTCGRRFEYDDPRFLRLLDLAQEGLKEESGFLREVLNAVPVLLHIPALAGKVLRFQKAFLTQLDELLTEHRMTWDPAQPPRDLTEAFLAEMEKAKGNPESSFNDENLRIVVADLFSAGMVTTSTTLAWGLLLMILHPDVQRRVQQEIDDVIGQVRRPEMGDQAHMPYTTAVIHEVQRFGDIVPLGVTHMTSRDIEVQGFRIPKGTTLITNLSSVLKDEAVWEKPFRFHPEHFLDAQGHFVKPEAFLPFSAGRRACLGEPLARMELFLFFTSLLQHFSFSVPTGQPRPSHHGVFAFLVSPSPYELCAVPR

Compound	CC50 at 48 h (in vitro [1]) [µM]	CC50 at 48 h (in vitro [2]) [µM]	CLint scaled at 2 h (in vitro [4]) [mL/min/kg]	remaining at 60 min (in vitro [5]) [%]	half-life at 2 h (in vitro [6]) [min]	IC50 (Cytochrome P450 2C9) [µM]	IC50 (Cytochrome P450 2C19) [µM]	IC50 (Cytochrome P450 3A4) [µM]	IC50 (Cytochrome P450 1A2) [µM]	IC50 (Cytochrome P450 2D6) [µM]	other results
CCC(CC)O[C@@H]1C=C(C(=O)O)C[C@H](NCc2c(C)cc(-c3ccsc3)cc2C)[C@H]1NC(C)=O	> 250	> 250									
CC(C)(C)NCC(O)COc1cccc2c1CC(O)C(O)C2 (stereo unspecified) [NADOLOL]											Papp A→B at 2 h, 20 µM (in vitro [3]): 0.0491 ×10⁻⁶ cm/s
C[C@]12CC[C@H]3[C@@H](CCC4=CC(=O)CC[C@@]43C)[C@@H]1CC[C@@H]2O [TESTOSTERONE]			89.7	5.1							
CCC(CC)O[C@@H]1C=C(C(=O)O)C[C@H](NCc2ccc(-c3ccsc3)cc2O)[C@H]1NC(C)=O	> 250	> 250	17.2	59	44.5						
CCC(CC)O[C@@H]1C=C(C(=O)O)C[C@H](NCc2ccc(-c3cccs3)cc2C)[C@H]1NC(C)=O	> 250	> 250	10.2	71.7	123	43.6	38.9	> 100	19.5	> 100	
CCC(CC)O[C@@H]1C=C(C(=O)O)C[C@H](NCc2ccc(-c3ccsc3)cc2Cl)[C@H]1NC(C)=O	> 250	> 250	< 8.6	78.1	> 145	31.8	36.6	72.5	14.3	> 100	
CCC(CC)O[C@@H]1C=C(C(=O)O)C[C@H](N)[C@H]1NC(C)=O [OSELTAMIVIR CARBOXYLATE]	> 250	> 250	28	40.6	72.4						
CCC(CC)O[C@@H]1C=C(C(=O)O)C[C@H](NCc2ccc(-c3ccsc3)cc2OC)[C@H]1NC(C)=O	> 250	> 250	< 8.6	79.3	> 145	47.3	47.8	> 100	28.9	> 100	half-life [7]: 12.8 min; Tmax [8]: 4.98 min; Cmax [9]: 7200 ng/mL; Vd [10]: 0.179 L/kg; clearance [11]: 17.2 mL/min/kg; half-life [12]: 50.2 min; Tmax [13]: 30 min; Cmax [14]: 491 ng/mL; bioavailability [15]: 1.58%; Activity [16]: Non-Toxic; Activity [17]: Non-Toxic; Activity [18]: Non-Toxic; Activity [19]: Non-Toxic; Activity [20]: Non-Toxic; Activity [21]: Non-Toxic; Activity [22]: Non-Toxic; Activity [23]: Non-Toxic; Activity [24]: Non-Toxic; Papp A→B at 2 h, 20 µM (in vitro [3]): 0.0262 ×10⁻⁶ cm/s
CCC(CC)O[C@@H]1C=C(C(=O)O)C[C@H](NCc2ccc(-c3cccs3)cc2OC)[C@H]1NC(C)=O	> 250	> 250	10.4	73.8	120	41.6	30.3	87.6	20.7	> 100	half-life [7]: 12.8 min; Tmax [8]: 4.98 min; Cmax [9]: 6870 ng/mL; Vd [10]: 0.191 L/kg; clearance [11]: 17.7 mL/min/kg; half-life [12]: 20.9 min; Tmax [13]: 20 min; Cmax [14]: 511 ng/mL; bioavailability [15]: 1.5%; Activity [16]: Non-Toxic; Activity [17]: Non-Toxic; Activity [18]: Non-Toxic; Activity [19]: Non-Toxic; Activity [20]: Non-Toxic; Activity [21]: Non-Toxic; Activity [22]: Non-Toxic; Activity [23]: Non-Toxic; Activity [24]: Non-Toxic; Papp A→B at 2 h, 20 µM (in vitro [3]): 0.0191 ×10⁻⁶ cm/s
O=C(O)Cc1ccccc1Nc1c(Cl)cccc1Cl [DICLOFENAC]			225		5.5						
CCC(CC)O[C@@H]1C=C(C(=O)O)C[C@H](NCc2ccc(-c3cccs3)cc2Cl)[C@H]1NC(C)=O	> 250	> 250	< 8.6	76.1	> 145	86.5	39.3	> 100	12.7	> 100	
CCC(CC)O[C@@H]1C=C(C(=O)O)C[C@H](NCc2ccc(-c3cccs3)c(Cl)c2)[C@H]1NC(C)=O	> 250	> 250									
CCC(CC)O[C@@H]1C=C(C(=O)O)C[C@H](NCc2ccc(-c3ccsc3)cc2C)[C@H]1NC(C)=O	> 250	> 250									
CCC(CC)O[C@@H]1C=C(C(=O)O)C[C@H](NCc2c(C)cc(-c3cccs3)cc2C)[C@H]1NC(C)=O	> 250	> 250									
